Test system: 422866-222-R5-J1-PDC complex spheroid viability
Experiment: Anticancer human tumor 422866-222-R5-J1-PDC patient-derived pancreatic adenocarcinoma cell line growth inhibition [POLQ]
Details: for IC50: curve of first compound; for viability, T/C: stronger effect = lower value
How it was run: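 Complex spheroid viability model combining PDC tumour cells with endothelial (HUVEC) and MSC stromal cells. Novobiocin, ART-558 or RP6685 were tested singly and in combination with standard and investigational anticancer drugs. Each was titrated in half-log steps from near clinical Cmax, or from 10 microM where Cmax was unknown.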

[1] = second compound 0.0316 µM, first compound 0.0316 µM
[2] = second compound 0.0316 µM, first compound 0.1 µM
[3] = second compound 0.1 µM, first compound 0.0316 µM
[4] = second compound 0.1 µM, first compound 0.1 µM
[5] = second compound 0.316 µM, first compound 0.0316 µM
[6] = second compound 0.316 µM, first compound 0.1 µM
[7] = second compound 1 µM, first compound 0.0316 µM
[8] = second compound 1 µM, first compound 0.1 µM
[9] = second compound 3.16 µM, first compound 0.0316 µM
[10] = second compound 3.16 µM, first compound 0.1 µM
[11] = second compound 10 µM, first compound 0.0316 µM
[12] = second compound 10 µM, first compound 0.1 µM
[13] = second compound 0.0316 µM, first compound 0.316 µM
[14] = second compound 0.0316 µM, first compound 1 µM
[15] = second compound 0.0316 µM, first compound 3.16 µM
[16] = second compound 0.0316 µM, first compound 10 µM
[17] = second compound 0.1 µM, first compound 0.316 µM
[18] = second compound 0.1 µM, first compound 1 µM
[19] = second compound 0.1 µM, first compound 3.16 µM
[20] = second compound 0.1 µM, first compound 10 µM
[21] = second compound 0.316 µM, first compound 0.316 µM
[22] = second compound 0.316 µM, first compound 1 µM
[23] = second compound 0.316 µM, first compound 3.16 µM
[24] = second compound 0.316 µM, first compound 10 µM
[25] = second compound 1 µM, first compound 0.316 µM
[26] = second compound 1 µM, first compound 1 µM
[27] = second compound 1 µM, first compound 3.16 µM
[28] = second compound 1 µM, first compound 10 µM
[29] = second compound 3.16 µM, first compound 0.316 µM
[30] = second compound 3.16 µM, first compound 1 µM
[31] = second compound 3.16 µM, first compound 3.16 µM
[32] = second compound 3.16 µM, first compound 10 µM
[33] = second compound 10 µM, first compound 0.316 µM
[34] = second compound 10 µM, first compound 1 µM
[35] = second compound 10 µM, first compound 3.16 µM
[36] = second compound 10 µM, first compound 10 µM
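Note: spheroids exposed to compounds for one week before readout.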
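Throughout, for viability, T/C: percent of DMSO vehicle wells luminescence so 100% = untreated viability.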

CC[C@@]1(O)C(=O)OCc2c1cc1n(c2=O)Cc2cc3c(CN(C)C)c(O)ccc3nc2-1 + Cc1cccc(N(C)C(=O)C2C(O)CCN2c2nc(C)cc(C(F)(F)F)c2C#N)c1
IC50 (second compound 0.0316 µM): 30.7 nM
IC50 (second compound 0.1 µM): 24.1 nM
IC50 (second compound 0.316 µM): 31.2 nM
IC50 (second compound 1 µM): 47 nM
IC50 (second compound 3.16 µM): 25.9 nM
IC50 (second compound 10 µM): 31.3 nM
viability, T/C (second compound 0.0316 µM, first compound 0.000316 µM): 104%
viability, T/C (second compound 0.0316 µM, first compound 0.001 µM): 101%
viability, T/C (second compound 0.0316 µM, first compound 0.00316 µM): 85.7%
viability, T/C (second compound 0.0316 µM, first compound 0.01 µM): 75.7%
viability, T/C [1]: 42.5%
viability, T/C [2]: 45.5%
viability, T/C (second compound 0.1 µM, first compound 0.000316 µM): 105%
viability, T/C (second compound 0.1 µM, first compound 0.001 µM): 104%
viability, T/C (second compound 0.1 µM, first compound 0.00316 µM): 97%
viability, T/C (second compound 0.1 µM, first compound 0.01 µM): 62.6%
viability, T/C [3]: 46.2%
viability, T/C [4]: 44.4%
viability, T/C (second compound 0.316 µM, first compound 0.000316 µM): 114%
viability, T/C (second compound 0.316 µM, first compound 0.001 µM): 105%
viability, T/C (second compound 0.316 µM, first compound 0.00316 µM): 98.2%
viability, T/C (second compound 0.316 µM, first compound 0.01 µM): 87.5%
viability, T/C [5]: 47.6%
viability, T/C [6]: 46.3%
viability, T/C (second compound 1 µM, first compound 0.000316 µM): 114%
viability, T/C (second compound 1 µM, first compound 0.001 µM): 111%
viability, T/C (second compound 1 µM, first compound 0.00316 µM): 91%
viability, T/C (second compound 1 µM, first compound 0.01 µM): 77.5%
viability, T/C [7]: 53.5%
viability, T/C [8]: 41.1%
viability, T/C (second compound 3.16 µM, first compound 0.000316 µM): 96.2%
viability, T/C (second compound 3.16 µM, first compound 0.001 µM): 108%
viability, T/C (second compound 3.16 µM, first compound 0.00316 µM): 98.9%
viability, T/C (second compound 3.16 µM, first compound 0.01 µM): 80.3%
viability, T/C [9]: 40.8%
viability, T/C [10]: 46.6%
viability, T/C (second compound 10 µM, first compound 0.000316 µM): 82%
viability, T/C (second compound 10 µM, first compound 0.001 µM): 106%
viability, T/C (second compound 10 µM, first compound 0.00316 µM): 102%
viability, T/C (second compound 10 µM, first compound 0.01 µM): 77%
viability, T/C [11]: 50.7%
viability, T/C [12]: 48.8%

COc1cccc2c1C(=O)c1c(O)c3c(c(O)c1C2=O)CC(O)(C(=O)CO)CC3OC1CC(N)C(O)C(C)O1 (stereo unspecified) + Cc1cccc(N(C)C(=O)C2C(O)CCN2c2nc(C)cc(C(F)(F)F)c2C#N)c1
IC50 (second compound 0.0316 µM): 160 nM
IC50 (second compound 0.1 µM): 114 nM
IC50 (second compound 0.316 µM): 152 nM
IC50 (second compound 1 µM): 202 nM
IC50 (second compound 3.16 µM): 204 nM
IC50 (second compound 10 µM): 133 nM
viability, T/C [1]: 67.2%
viability, T/C [2]: 56.3%
viability, T/C [13]: 41.4%
viability, T/C [14]: 24.5%
viability, T/C [15]: 32.9%
viability, T/C [16]: 30.1%
viability, T/C [3]: 66.6%
viability, T/C [4]: 51.3%
viability, T/C [17]: 37%
viability, T/C [18]: 22.6%
viability, T/C [19]: 27.4%
viability, T/C [20]: 34.4%
viability, T/C [5]: 57.6%
viability, T/C [6]: 56.7%
viability, T/C [21]: 37.3%
viability, T/C [22]: 25.6%
viability, T/C [23]: 26.2%
viability, T/C [24]: 36.4%
viability, T/C [7]: 65.5%
viability, T/C [8]: 60.8%
viability, T/C [25]: 42.4%
viability, T/C [26]: 24.5%
viability, T/C [27]: 28.6%
viability, T/C [28]: 36.6%
viability, T/C [9]: 62.3%
viability, T/C [10]: 58.5%
viability, T/C [29]: 44.3%
viability, T/C [30]: 30.1%
viability, T/C [31]: 30.2%
viability, T/C [32]: 36.2%
viability, T/C [11]: 68.2%
viability, T/C [12]: 53%
viability, T/C [33]: 40.5%
viability, T/C [34]: 25.9%
viability, T/C [35]: 24.1%
viability, T/C [36]: 40.2%

O=c1[nH]cc(F)c(=O)[nH]1 + Cc1cccc(N(C)C(=O)C2C(O)CCN2c2nc(C)cc(C(F)(F)F)c2C#N)c1
IC50 (second compound 0.0316 µM): > 10000 nM
IC50 (second compound 0.1 µM): > 10000 nM
IC50 (second compound 0.316 µM): > 10000 nM
IC50 (second compound 1 µM): > 10000 nM
IC50 (second compound 3.16 µM): > 10000 nM
IC50 (second compound 10 µM): > 10000 nM
viability, T/C [1]: 117%
viability, T/C [2]: 98.5%
viability, T/C [13]: 102%
viability, T/C [14]: 88.2%
viability, T/C [15]: 82.1%
viability, T/C [16]: 74.9%
viability, T/C [3]: 111%
viability, T/C [4]: 92.2%
viability, T/C [17]: 92.3%
viability, T/C [18]: 90.8%
viability, T/C [19]: 66.9%
viability, T/C [20]: 74.3%
viability, T/C [5]: 118%
viability, T/C [6]: 109%
viability, T/C [21]: 99.9%
viability, T/C [22]: 84.3%
viability, T/C [23]: 81.1%
viability, T/C [24]: 78.2%
viability, T/C [7]: 111%
viability, T/C [8]: 96.6%
viability, T/C [25]: 97.9%
viability, T/C [26]: 101%
viability, T/C [27]: 84.8%
viability, T/C [28]: 83.2%
viability, T/C [9]: 107%
viability, T/C [10]: 98.6%
viability, T/C [29]: 86.3%
viability, T/C [30]: 83%
viability, T/C [31]: 83.8%
viability, T/C [32]: 87.6%
viability, T/C [11]: 90.6%
viability, T/C [12]: 88.8%
viability, T/C [33]: 99.7%
viability, T/C [34]: 80.6%
viability, T/C [35]: 86.7%
viability, T/C [36]: 67.8%

Source: PubChem BioAssay AID1963844 (Molecular Pharmacology Branch, DTP, NCI, 2024)
